In brackets after ≈: the same amount, converted by molar mass. Like-named read-outs stand apart in the source and are kept apart here.
Experiments:
[1] = test system: S. pneumoniae; test: microbe, parasite or virus in culture; type: cell-based
[2] = test system: S. pyogenes ATCC 8668; test: mouse subcutaneous abscess model; type: in vivo; details: 48 hr. post infection
Protocol: (§1) Example. Mouse Subcutaneous Abscess. Bacteria were prepared from an overnight plate culture by re-suspending in saline and adjusting the suspension to a 0.1 OD at 625 nm of a 1:10 dilution. The adjusted bacterial suspension was mixed 1:2 with cyclodextran beads prepared as per package instructions. The right flanks of the mice were shaven and injected subcutaneously with 0.2 ml of the bacterial inoculum. Two hours post infection mice were treated via oral gavage with either test article or control drug. 48 hours post infection, mice were euthanized, abscesses aseptically removed, homogenized, serially diluted and plated on bacterial growth agar. After overnight incubation, colonies were counted and CFUs/gram of abscess were determined.
Example. Mouse Subcutaneous Abscess˜S. pyogenes ATCC 8668 (Average Log10 CFU/gram of Abscess). Abscess processing 48 hours post infection.

[3] = test system: S. pneumoniae; test: mouse subcutaneous abscess model; type: in vivo; details: S. pneumoniae 1629, 10 mg/Kg PO
Protocol: Example. Efficacy was evaluated in several infection models. […] PD50s were determined 24 hr post infection. CEM-101 was further evaluated in a subcutaneous abscess mouse model against S. pneumoniae. CD-1 female mice were infected via SC injection of bacteria mixed with cyclodextran beads. Two hr post infection, mice received a single oral dose of CEM 101 or control agents. At 48 hr post dose, mice were euthanized, abscesses aseptically removed and bacteria enumerated. CFU per abscess was determined and compared to the untreated control. […] 24 hr post treatment, the thighs were processed and CFU/gram of thigh determined.
as §1
Example. The ability of CEM101 to reduce the microbial load in abscess infection model was also assessed against S. pneumoniae isolates.

[4] = test system: M. hominis; type: cell-based; details: M. hominis (13 isolates)
[5] = test system: S. pyogenes; test: MIC of the strains of the mouse systemic infection model; type: cell-based; details: Streptococcus pyogenes
[6] = test system: S. pyogenes; type: cell-based
[7] = test system: M. pneumoniae; test: microbe, parasite or virus in culture; type: cell-based; details: Mycoplasmoides pneumoniae
[8] = test system: S. pneumoniae; test: mouse systemic infection model (PD50); type: in vivo

## CC[C@H]1OC(=O)[C@H](C)C(=O)[C@H](C)[C@@H](O[C@@H]2O[C@H](C)C[C@H](N(C)C)[C@H]2O)[C@](C)(OC)C[C@@H](C)C(=O)[C@H](C)[C@H]2N(CCCCn3cnc(-c4cccnc4)c3)C(=O)O[C@]12C [TEL, telithromycin]
[1]; Streptococcus pneumoniae, read-out: Selected Resistance MIC, strain 7127 Macrolide-S [S20N in L4, A105V in L22], after serial passages in the drug
  MIC: 0.06 µg/mL (≈ 0.0739 µM)
[1]; daily passages, min. 14, max. 50
  days until resistant clones (MIC increase): 14 to 38 days
[1]; strain 24 Macrolide-R [erm(B)], clone selected with CEM-101
  Retest MIC after 10 Antibiotic-free Subcultures: 0.125 µg/mL
[1]; strain 24 Macrolide-R [erm(B)], clone selected with TEL
  Retest MIC after 10 Antibiotic-free Subcultures: 16 µg/mL
[1]; strain 1076 Macrolide-R [erm(B)&mef(A)], clone selected with CEM-101
  Retest MIC after 10 Antibiotic-free Subcultures: 32 µg/mL
[1]; strain 1076 Macrolide-R [erm(B)&mef(A)], clone selected with TEL
  Retest MIC after 10 Antibiotic-free Subcultures: >64 µg/mL
[1]; strain 1077 Macrolide-S, clone selected with AZI
  Retest MIC after 10 Antibiotic-free Subcultures: 0.125 µg/mL
[1]; strain 1077 Macrolide-S, clone selected with CEM-101
  Retest MIC after 10 Antibiotic-free Subcultures: 0.06a μg/ml
[1]; strain 1077 Macrolide-S, clone selected with CLN
  Retest MIC after 10 Antibiotic-free Subcultures: 0.06 µg/mL
[1]; strain 1077 Macrolide-S, clone selected with TEL
  Retest MIC after 10 Antibiotic-free Subcultures: 0.25 µg/mL
[1]; strain 1635 Macrolide-R [erm(A)], clone selected with AZI
  Retest MIC after 10 Antibiotic-free Subcultures: 0.004 µg/mL
[1]; strain 1635 Macrolide-R [erm(A)], clone selected with CEM-101
  Retest MIC after 10 Antibiotic-free Subcultures: 0.03 µg/mL
[1]; strain 1635 Macrolide-R [erm(A)], clone selected with CLN
  Retest MIC after 10 Antibiotic-free Subcultures: 0.008 µg/mL
[1]; strain 1635 Macrolide-R [erm(A)], clone selected with CLR
  Retest MIC after 10 Antibiotic-free Subcultures: 0.016 µg/mL
[1]; strain 2686 Macrolide-R [L4 mutation], clone selected with CEM-101
  Retest MIC after 10 Antibiotic-free Subcultures: 0.25 µg/mL
[1]; strain 2686 Macrolide-R [L4 mutation], clone selected with CLR
  Retest MIC after 10 Antibiotic-free Subcultures: 0.06 µg/mL
[1]; strain 2686 Macrolide-R [L4 mutation], clone selected with TEL
  Retest MIC after 10 Antibiotic-free Subcultures: 0.5 µg/mL
[1]; strain 3009 Macrolide-R [23SrRNA mutation], clone selected with CEM-101
  Retest MIC after 10 Antibiotic-free Subcultures: 0.06 µg/mL
[1]; strain 3009 Macrolide-R [23SrRNA mutation], clone selected with CLR
  Retest MIC after 10 Antibiotic-free Subcultures: 0.06 µg/mL
[1]; strain 3665 Macrolide-R [mef(A)], clone selected with CEM-101
  Retest MIC after 10 Antibiotic-free Subcultures: 0.25 µg/mL
[1]; strain 3665 Macrolide-R [mef(A)], clone selected with CLR
  Retest MIC after 10 Antibiotic-free Subcultures: 0.06 µg/mL
[1]; strain 3665 Macrolide-R [mef(A)], clone selected with TEL
  Retest MIC after 10 Antibiotic-free Subcultures: 0.25 µg/mL
[1]; strain 7127 Macrolide-S [S20N in L4, A105V in L22], clone selected with AZI
  Retest MIC after 10 Antibiotic-free Subcultures: 0.016 µg/mL
[1]; strain 7127 Macrolide-S [S20N in L4, A105V in L22], clone selected with CEM-101
  Retest MIC after 10 Antibiotic-free Subcultures: 0.06 µg/mL
[1]; strain 7127 Macrolide-S [S20N in L4, A105V in L22], clone selected with CLN
  Retest MIC after 10 Antibiotic-free Subcultures: 0.008 µg/mL
[1]; strain 7127 Macrolide-S [S20N in L4, A105V in L22], clone selected with CLR
  Retest MIC after 10 Antibiotic-free Subcultures: 0.008 µg/mL
[1]; strain 7127 Macrolide-S [S20N in L4, A105V in L22], clone selected with TEL
  Retest MIC after 10 Antibiotic-free Subcultures: 0.03 µg/mL
[2]; 10 mg/Kg
  Average Log10 CFU/gram of Abscess: 7.06 Log10 CFU/gram
[2]; 20 mg/Kg
  Average Log10 CFU/gram of Abscess: 6.10 Log10 CFU/gram
[3]; 24 hours
  average log10 CFU/gram of abscess: about 3 log10 CFU/gram
[3]; 48 hours
  average log10 CFU/gram of abscess: about 4.5 log10 CFU/gram
[4]
  MIC Range: 0.125 to 0.5 µg/mL
[4]; Metamycoplasma hominis, read-out: MIC50
  MIC50: 0.25 µg/mL (≈ 0.308 µM)
[4]; Metamycoplasma hominis, read-out: MIC90
  MIC90: 0.5 µg/mL (≈ 0.616 µM)
[5]; S. pyogenes (erythromycin R)
  MIC: 1 µg/mL
[5]; S. pyogenes (macrolide susceptible)
  MIC: 0.015 µg/mL
[6]; S. pyogenes, at 2×MIC
  Mutant selection frequencies: <8.3×10^−11-7.7×10^−8
[6]; strain 237 Macrolide-R [L4 mutation], 2 × MIC
  single step mutation frequency: <2.0 × 10^−10
[6]; strain 237 Macrolide-R [L4 mutation], 4 × MIC
  single step mutation frequency: <2.0 × 10^−10
[6]; strain 237 Macrolide-R [L4 mutation], 8 × MIC
  single step mutation frequency: <2.0 × 10^−10
[6]; strain 2011 Macrolide-R [mef(A)], 2 × MIC
  single step mutation frequency: 3.8 × 10^−8
[6]; strain 2011 Macrolide-R [mef(A)], 4 × MIC
  single step mutation frequency: <6.3 × 10^−10
[6]; strain 2011 Macrolide-R [mef(A)], 8 × MIC
  single step mutation frequency: <6.3 × 10^−10
[6]; strain 2094 Macrolide-R [erm(A)], 2 × MIC
  single step mutation frequency: 7.7 × 10^−8
[6]; strain 2094 Macrolide-R [erm(A)], 4 × MIC
  single step mutation frequency: <1.5 × 10^−10
[6]; strain 2094 Macrolide-R [erm(A)], 8 × MIC
  single step mutation frequency: <1.5 × 10^−10
[6]; strain 2132 Macrolide-S, 2 × MIC
  single step mutation frequency: <8.3 × 10^−11
[6]; strain 2132 Macrolide-S, 4 × MIC
  single step mutation frequency: <8.3 × 10^−11
[6]; strain 2132 Macrolide-S, 8 × MIC
  single step mutation frequency: <8.3 × 10^−11
[7]
  MIC50: 0.00025 µg/mL (≈ 0.000308 µM)
  MIC90: 0.001 µg/mL (≈ 0.00123 µM)
[8]; S. pneumoniae (macrolide susceptible)
  PD50: 19.9 mg/kg
[8]; S. pneumoniae (mefR)
  PD50: 10.6 mg/kg
[8]; S. pneumoniae serotype 19A
  PD50: 5.7 mg/kg
